Columns and labels:
[1] = in vivo; conditions: Sprague-Dawley, rat, po, 3 mg/kg
[2] = in vivo; conditions: Sprague-Dawley, rat, iv, 1 mg/kg
[3] = in vivo; conditions: Sprague-Dawley, rat, iv, 1 mg/kg; remark: listed apart in the source
[4] = species on record: Rattus norvegicus; conditions: in vivo, po, 3 mg/kg
[5] = species on record: Rattus norvegicus; conditions: in vivo, po, 3 mg/kg; remark: listed apart in the source

Q: Which bioavailability [1] does the source give for `CCc1nc2c(C)cc(C)nc2n1Cc1ccc(/C=C/CN2CCN(C(C)C)CC2)cc1` here?
A: 86%

Q: What about the clearance [2] of the same compound?
A: 15 mL/min/kg

Q: And the half-life [3]?
A: 5.6 h

Q: What about the AUC/dose [4] of the same compound?
A: 2196 µg·min/mL

Q: And the Cmax/dose [5]?
A: 193 nM
